Values after ≈ are worked out from the molar mass of the structure shown. “Also recorded” adds a separate entry of the source.
Legend:
[1] = humans; cited from earlier work
[2] = cited from earlier work
[3] = Testing of smear on glass slide (crystals deployed); type: physicochemical
Source text: An additional method was employed to replicate the clinical topical application. A smear of the various concentrations was made on the glass histology blank slide to show the amount of crystals deployed for the various concentrations.

[4] = CBD solubility testing in liquid vehicles; type: physicochemical
Source text: The liquid vehicles used are considered G.R.A.S. by FDA; distilled water, deionized water, propylene glycol and 70% isopropyl alcohol. The test containers were 125-milliliter graduated and measured sterile plastic from Wheaton company. A thermometer probe was used to assess the temperatures.
Testing was done to determine the independent solubility of each reagent in the various vehicles. This was followed by testing the potential concentrations of each when combined. The testing started with an arbitrary solution concentration, one that could be altered for percentage of solubility.

[5] = cited from earlier work; remark: listed apart in the source
MRSA and Pseudomonas = conditions: cited from earlier work
[6] = compared with vitamin E; cited from earlier work

Structure (SMILES): C=C(C)[C@@H]1CCC(C)=C[C@H]1c1c(O)cc(CCCCC)cc1O [CBD, Cannabidiol]
- oral bioavailability [1]: approximately 6%
- solubility in DMSO ([2]; DMSO purged with an inert gas): ~60 mg/mL (≈ 191 mM)
- solubility in alcohol / isopropyl alcohol ([2]; alcohol, at the original time of extraction, by the literature): up to 90%
- solubility in dimethyl formamide ([2]; dimethyl formamide purged with an inert gas): ~50 mg/mL (≈ 159 mM)
- solubility in ethanol ([2]; ethanol purged with an inert gas): approximately 35 mg/ml
- solubility in methanol ([2]; methanol purged with an inert gas): ~30 mg/mL (≈ 95.4 mM)
- crystals on glass slide smear ([3]; 1% concentrations): very sparse crystals
- crystals on glass slide smear ([3]; concentrations of 2 and 3%): abundant crystals
- heating necessary for dissolving ([4]; 0.247 (0.247%) in 100 ml distilled water): 120 degrees Fahrenheit
- solution outcome upon cooling ([4]; 0.247 (0.247%) in 100 ml distilled water, heated to 120 degrees Fahrenheit then cooled): went out of solution
- time remained in solution ([4]; 0.517 (0.5 grams) in 50 ml deionized water, preheated): at least 48 hours
- heating necessary for dissolving ([4]; 1.0 gram (1%) in 100 ml distilled water): 120 degrees Fahrenheit
- solution outcome upon cooling ([4]; 1.0 gram (1%) in 100 ml distilled water, heated to 120 degrees Fahrenheit then cooled): went out of solution
- time remained in solution ([4]; 1 gram (1%) in 100 ml propylene glycol, preliminary heating to 120 Fahrenheit, after cooling): > 48 h
- time soluble ([4]; 1.02 gram in 100 ml isopropyl alcohol): more than 48 hours
- temperature at which it went into solution ([4]; 1.025 grams in 50 ml deionized water): 120 Fahrenheit
- solution outcome ([4]; 1.025 grams in 50 ml deionized water (2.05%), after cooling): came out of solution
- solution outcome upon cooling ([4]; 2% in 100 ml propylene glycol, heated then cooled): came out of solution
- solution outcome ([4]; 2 grams (4%) in 50 ml propylene glycol, with heating): did not go into solution even with heating; also recorded: not dissolved even on heating
- time remained soluble ([4]; 3 grams in 100 ml 70% isopropyl alcohol): more than 48 hours
- temperature required to dissolve ([4]; 40 milligrams of CBD in distilled water): 140 degrees Fahrenheit
- effect of heating in solution ([4]; heated past 100 Fahrenheit): forms a tan “glue” like material
- effect of heating alone and/or in combination ([4]; heating above 90 Fahrenheit): tan ‘glue’ or sticky material
- elimination half-life ([5]; in vivo): 18 to 32 h

Structure (SMILES): O=C(O)c1ccc(O)c(O)c1 [PCA, Protocatechuic acid]
- time to heal the wound (MRSA and Pseudomonas; topical 25 uM PCA, mammalian skin wound): 2 days
- topical dose sufficient for controlling skin wound infection (MRSA and Pseudomonas; topical, mammalian skin wound of MRSA and Pseudomonas): 25 µM
- crystals on glass slide smear ([3]; concentrations of 2 and 3%): abundant crystals
- life (duration in the body) ([5]; in vivo): 8 h
- oral availability ([5]; oral, in 30 minutes): 100%
- peak ([5]; time of peak in the body): 2 min
- antioxidant power relative to vitamin E [6]: 10 times
